Data published in PubChem BioAssay (NCI).
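Briefly, cells in 96-well plates were exposed to five compound concentrations for 48 h, and endpoints were estimated by linear interpolation. TGI marks complete inhibition of growth.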

Experiments:
Test in all cases: NCI-60 cell line screen, 48 h
[1] = tested on: EKVX NSCLC
[2] = tested on: IGROV1 ovarian
[3] = tested on: NCI-H23 lung
[4] = tested on: ACHN renal
[5] = tested on: LOX IMVI melanoma
[6] = tested on: A498 renal
[7] = tested on: SNB-19 CNS
[8] = tested on: COLO 205 colon
[9] = tested on: MCF7 breast
[10] = tested on: HL-60(TB) leukemia
[11] = tested on: CCRF-CEM leukemia
[12] = tested on: OVCAR-3 ovarian
[13] = tested on: RXF 393 renal
[14] = tested on: MDA-MB-231 breast
[15] = tested on: UACC-257 melanoma
[16] = tested on: NCI-H226 lung
[17] = tested on: U251 CNS
[18] = tested on: K-562 leukemia
[19] = tested on: MDA-N
[20] = tested on: 786-0 renal
[21] = tested on: SF-295 CNS
[22] = tested on: OVCAR-8 ovarian
[23] = tested on: HCT-15 colon
[24] = tested on: HT29 colon
[25] = tested on: CAKI-1 renal
[26] = tested on: RPMI-8226 leukemia
[27] = tested on: HS 578T breast
[28] = tested on: TK-10 renal
[29] = tested on: SK-MEL-28 melanoma
[30] = tested on: OVCAR-5 ovarian
[31] = tested on: SK-MEL-2 melanoma
[32] = tested on: NCI-H460 lung
[33] = tested on: SW-620 colon
[34] = tested on: M14 melanoma
[35] = tested on: UACC-62 melanoma
[36] = tested on: BT-549 breast
[37] = tested on: MDA-MB-435
[38] = tested on: HCT-116 colon
[39] = tested on: SF-539 CNS
[40] = tested on: SNB-75 CNS
[41] = tested on: HOP-62 NSCLC
[42] = tested on: PC-3 prostate
[43] = tested on: SK-OV-3 ovarian
[44] = tested on: SR leukemia
[45] = tested on: KM12 colon
[46] = tested on: SF-268 CNS
[47] = tested on: DU-145 prostate
[48] = tested on: MALME-3M melanoma
[49] = tested on: SN12C renal
[50] = tested on: NCI/ADR-RES ovarian
[51] = tested on: MOLT-4 leukemia
[52] = tested on: SK-MEL-5 melanoma
[53] = tested on: NCI-H522 lung
[54] = tested on: UO-31 renal
[55] = tested on: HCC-2998 colon
[56] = tested on: OVCAR-4 ovarian
[57] = tested on: T-47D breast
[58] = tested on: A549 NSCLC
[59] = tested on: HOP-92 NSCLC

Cn1c(=O)oc2cc(C(=S)N3CCC(Cc4ccccc4)CC3)ccc21
TGI [1]: > 100 µM
TGI [2]: > 100 µM
TGI [3]: > 100 µM
TGI [4]: > 100 µM
TGI [5]: > 100 µM
TGI [6]: > 100 µM
TGI [7]: > 100 µM
TGI [8]: > 100 µM
TGI [9]: > 100 µM
TGI [10]: > 100 µM
TGI [11]: > 100 µM
TGI [12]: > 100 µM
TGI [13]: > 100 µM
TGI [14]: > 100 µM
TGI [15]: > 100 µM
TGI [16]: > 100 µM
TGI [17]: > 100 µM
TGI [18]: > 100 µM
TGI [19]: > 100 µM
TGI [20]: > 100 µM
TGI [21]: > 100 µM
TGI [22]: > 100 µM
TGI [23]: > 100 µM
TGI [24]: > 100 µM
TGI [25]: > 100 µM
TGI [26]: > 100 µM
TGI [27]: > 100 µM
TGI [28]: > 100 µM
TGI [29]: > 100 µM
TGI [30]: > 100 µM
TGI [31]: > 100 µM
TGI [32]: > 100 µM
TGI [33]: > 100 µM
TGI [34]: > 100 µM
TGI [35]: > 100 µM
TGI [36]: > 100 µM
TGI [37]: > 100 µM
TGI [38]: > 100 µM
TGI [39]: > 100 µM
TGI [40]: > 100 µM
TGI [41]: > 100 µM
TGI [42]: > 100 µM
TGI [43]: > 100 µM
TGI [44]: > 100 µM
TGI [45]: > 100 µM
TGI [46]: > 100 µM
TGI [47]: > 100 µM
TGI [48]: > 100 µM
TGI [49]: > 100 µM
TGI [50]: > 100 µM
TGI [51]: > 100 µM
TGI [52]: > 100 µM

CCCCCCc1cc2cc(C(=O)Nc3ccccc3F)c(=N)oc2cc1O
TGI [1]: 32.3 µM
TGI [2]: 13.7 µM
TGI [3]: 8.03 µM
TGI [4]: 25.6 µM
TGI [5]: 19.4 µM
TGI [6]: 37.2 µM
TGI [7]: 56.2 µM
TGI [8]: 39.3 µM
TGI [9]: 39.1 µM
TGI [10]: 31.9 µM
TGI [11]: 21.7 µM
TGI [12]: 25.9 µM
TGI [15]: 42.2 µM
TGI [17]: 17.9 µM
TGI [18]: > 100 µM
TGI [19]: 24 µM
TGI [20]: 24.9 µM
TGI [21]: 33 µM
TGI [53]: 16.8 µM
TGI [22]: 8.34 µM
TGI [23]: 22.3 µM
TGI [24]: 62.9 µM
TGI [25]: 22.9 µM
TGI [54]: 17.5 µM
TGI [26]: > 100 µM
TGI [27]: 63.8 µM
TGI [55]: 48.1 µM
TGI [29]: 56.8 µM
TGI [30]: 50.9 µM
TGI [31]: 26.8 µM
TGI [32]: 97.8 µM
TGI [33]: > 100 µM
TGI [34]: 28.7 µM
TGI [35]: 36.1 µM
TGI [36]: 23.2 µM
TGI [37]: 10.2 µM
TGI [56]: 22.4 µM
TGI [38]: 20.6 µM
TGI [39]: 39.3 µM
TGI [41]: 31.8 µM
TGI [42]: 26.8 µM
TGI [43]: 29.3 µM
TGI [44]: 50.2 µM
TGI [57]: 12.4 µM
TGI [45]: 19.7 µM
TGI [58]: 26.9 µM
TGI [46]: 59.9 µM
TGI [47]: 25.2 µM
TGI [48]: 57.6 µM
TGI [50]: 16.8 µM
TGI [51]: 90.5 µM
TGI [52]: 12.8 µM

COc1cc(COC(=O)N2CCCCC2C(=O)O)c([N+](=O)[O-])cc1OC (stereo unspecified)
TGI [1]: > 100 µM
TGI [2]: > 100 µM
TGI [3]: > 100 µM
TGI [4]: > 100 µM
TGI [6]: > 100 µM
TGI [7]: > 100 µM
TGI [8]: > 100 µM
TGI [9]: > 100 µM
TGI [10]: > 100 µM
TGI [11]: > 100 µM
TGI [12]: > 100 µM
TGI [13]: > 100 µM
TGI [15]: > 100 µM
TGI [59]: > 100 µM
TGI [16]: > 100 µM
TGI [17]: > 100 µM
TGI [18]: > 100 µM
TGI [19]: > 100 µM
TGI [20]: > 100 µM
TGI [21]: > 100 µM
TGI [22]: > 100 µM
TGI [23]: > 100 µM
TGI [24]: > 100 µM
TGI [54]: > 100 µM
TGI [26]: > 100 µM
TGI [27]: > 100 µM
TGI [28]: > 100 µM
TGI [55]: > 100 µM
TGI [29]: > 100 µM
TGI [30]: > 100 µM
TGI [32]: > 100 µM
TGI [33]: > 100 µM
TGI [34]: > 100 µM
TGI [35]: > 100 µM
TGI [36]: > 100 µM
TGI [37]: > 100 µM
TGI [38]: > 100 µM
TGI [39]: > 100 µM
TGI [40]: > 100 µM
TGI [41]: > 100 µM
TGI [42]: > 100 µM
TGI [43]: > 100 µM
TGI [44]: > 100 µM
TGI [57]: > 100 µM
TGI [45]: > 100 µM
TGI [58]: > 100 µM
TGI [46]: > 100 µM
TGI [47]: > 100 µM
TGI [48]: > 100 µM
TGI [49]: > 100 µM
TGI [50]: > 100 µM
TGI [51]: > 100 µM
TGI [52]: > 100 µM

Cc1ccc(-c2c(C#N)c(-c3ccc([N+](=O)[O-])cc3)c(C#N)c(=O)n2NS(=O)(=O)c2ccc(C)cc2)cc1
TGI [1]: > 100 µM
TGI [2]: > 100 µM
TGI [4]: > 100 µM
TGI [5]: > 100 µM
TGI [6]: > 100 µM
TGI [7]: > 100 µM
TGI [8]: > 100 µM
TGI [9]: > 100 µM
TGI [10]: 84.3 µM
TGI [11]: 73.2 µM
TGI [12]: > 100 µM
TGI [13]: > 100 µM
TGI [14]: > 100 µM
TGI [15]: > 100 µM
TGI [59]: > 100 µM
TGI [16]: > 100 µM
TGI [17]: > 100 µM
TGI [18]: > 100 µM
TGI [19]: > 100 µM
TGI [20]: > 100 µM
TGI [21]: > 100 µM
TGI [53]: > 100 µM
TGI [22]: > 100 µM
TGI [23]: > 100 µM
TGI [24]: > 100 µM
TGI [25]: > 100 µM
TGI [26]: 47 µM
TGI [27]: 95.8 µM
TGI [28]: > 100 µM
TGI [55]: > 100 µM
TGI [29]: > 100 µM
TGI [30]: > 100 µM
TGI [31]: > 100 µM
TGI [32]: > 100 µM
TGI [33]: > 100 µM
TGI [34]: > 100 µM
TGI [35]: > 100 µM
TGI [36]: > 100 µM
TGI [37]: > 100 µM
TGI [56]: > 100 µM
TGI [38]: > 100 µM
TGI [39]: > 100 µM
TGI [40]: > 100 µM
TGI [41]: > 100 µM
TGI [42]: > 100 µM
TGI [43]: > 100 µM
TGI [45]: > 100 µM
TGI [58]: > 100 µM
TGI [46]: > 100 µM
TGI [48]: > 100 µM
TGI [49]: > 100 µM
TGI [50]: > 100 µM
TGI [51]: 50.1 µM
TGI [52]: 48.7 µM
